Assay results: US10208043B2, “Methods for inhibiting fascin” (Novita Pharmaceuticals, Inc., priority 2012, dated 2019)

Legend:
4T1 breast tumor cells = assay: Boyden-chamber cell migration assay, 4T1; format: cell-based
Description: Since fascin is critical for tumor cell migration, inhibitors of fascin should block tumor cell migration. Representative compounds were selected from the above-identified fascin inhibitors to test their abilities on inhibition of tumor cell migration (See Table 2). […] The cell lines used are listed below.
Exemplifying procedure: MDA-MB-231 cells (5×10^4) or 4T1 Cells (1×10^5) suspended in 100 μL starvation medium were added to the upper chamber of an insert (6.5 mm diameter, 8 μm pore size; Becton Dickson), and the insert was placed in a 24-well plate containing 700 μL starvation medium with or without 10% FBS. […] Migration assays were performed for 6 h and cells were fixed with 3.7% formaldehyde. Cells were stained with crystal violet staining solution, and cells on the upper side of the insert were removed with a cotton swab. Three randomly selected fields (×10 objectives) on the lower side of the insert were photographed, and the migrated cells were counted. Migration was expressed as average number of migrated cells in a field.

fascin = fascin (Homo sapiens (Human), UniProt Q16658); assay: High throughput fascin inhibition assay (actin bundling, F-actin imaging); format: biochemical
Description: A high throughput assay was developed to screen for fascin specific inhibitors. Purified polymerized F-actin with or without fascin were mixed and incubated to allow actin bundle formation. F-actin polymers were then bound to the poly-D-lysine coated plates. […] Four images were taken from each well and the average fiber length was analyzed for each tested compound.
Recombinant human fascin 1 was expressed as a GST fusion protein in BL21 Escherichia coli. One liter of 2YT medium with ampicillin was inoculated overnight with 3 mL of BL21/DE3 culture transformed with pGEX4T-fascin 1 plasmid and grown at 37° C. until attenuance at 600 nm (D600) reached about 0.8. The culture was then transferred to 18° C. and induced by the addition of 0.1 mM isopropyl β-d-thiogalactoside (IPTG) for 12 h. Bacteria were harvested by centrifugation at 5,000 r.p.m. for 10 min. The pellets were suspended in 30 mL of PBS supplemented with 0.2 mM PMSF, 1 mM DTT, 1% (v/v) Triton X-100 and 1 mM EDTA. After sonication, the suspension was centrifuged at 15,000 r.p.m. for 30 min to remove the cell debris. The supernatant was then incubated for 2 h with 4 mL of glutathione beads (Sigma) at 4° C. After extensive washing with PBS, the beads were resuspended in 10 mL of thrombin cleavage buffer (20 mM Tris-HCl pH 8.0, 150 mM NaCl, 2 mM CaCl2, 1 mM DTT). Fascin was released from the beads by incubation overnight with 40-100 U of thrombin at 4° C. After centrifugation, 0.2 mM PMSF was added to the supernatant to inactivate the remnant thrombin activity. The fascin protein was further concentrated with a Centricon® (Boca Raton, Fla.) filter to about 50 mg/mL.
About 150,000 compounds were screened. […] Purified fascin protein (15 μL of 0.5 μM) in buffer (100 mM KCl, 20 mM Tris/HCl, pH 7.5, 2 mM MgCl2) was added into each well of a clear 384-well flat-bottom plate (Corning) using Thermo Multidrop Combi (Fisher). Compound ([…]) solutions (5 mM stock) from various chemical libraries were pin transferred from stock 384-well plates into the 384-well assay plates and incubated for 30 min. Then 15 μL of 0.5 μM polymerized actin (in 100 mM KCl, 20 mM Tris/HCl, pH 7.5, 2 mM MgCl2, 1 mM DTT, 1 mM ATP) (Cytoskeleton Inc.) was added, resulting in 30 μM final concentration for chemical compounds. […] Mixed solution (25 μL) was then transferred to one well in a black 384-well plate coated with poly-D-lysine, and stained actin bundles or F-actin would stick onto the poly-D-lysine plates. After the plates were thoroughly washed with 1×PBS for 3 times, the plate was imaged using an ImageXpress Micro High Content Screening System (Molecular devices). The images were processed and analyzed using MetaMorph software. The raw image data for each well was background-corrected by subtraction of the median intensities across all wells on the plate. The background-corrected data was used to compute the bundle length for each well. The negative control wells were employed for quality control: multiple DMSO-only control wells (16 wells/plate) were present on each assay plate.

SMILES	IC50 (4T1 breast tumor cells) [µM]	IC50 (fascin) [µM]
Cc1cc(C)c(S(=O)(=O)Nc2cc(Sc3nc[nH]n3)c(O)c3ccccc23)cc1C [Compound 12, N-(3-(1H-1,2,4-triazol-3-ylthio)-4-hydroxynaphthalen-1-yl)-2,4,5-trimethylbenzenesulfonamide]	16	0.539
O=C(Cn1cnc2c(cnn2C2CCS(=O)(=O)C2)c1=O)Nc1ccc(Cl)cc1 [Compound 26, N-(4-chlorophenyl)-2-(4-oxo-1-(S,S-dioxo-tetrahydrothiophen-3-yl)-1H-pyrazolo[3,4-d]pyrimidin-5(4H)-yl)acetamide]		4.3
O=S(=O)(Nc1nc2ccc(F)cc2s1)c1cccc(Cl)c1Cl [Compound 18, 2,3-dichloro-N-(6-fluorobenzo[d]thiazol-2-yl)benzenesulfonamide]	~3	~13
O=S(=O)(Nc1cc(Sc2nc[nH]n2)c(O)c2ccccc12)c1ccc(Br)cc1 [Compound 14, N-(3-(1H-1,2,4-triazol-3-ylthio)-4-hydroxynaphthalen-1-yl)-4-bromobenzenesulfonamide]	~25	2.62
CNc1nc(-c2ccccc2)[n+](-c2ccccc2)s1 [Compound 5, N-methyl-2,3-diphenyl-1,2,4-thiadiazolium-5-amine]	30	0.5
O=C(Cn1cnc2c(cnn2C2CCS(=O)(=O)C2)c1=O)c1ccc2c(c1)OCCO2 [Compound 27, 5-(2-(2,3-dihydrobenzo[b][1,4]dioxin-6-yl)-2-oxoethyl)-1-(S,S-dioxo-tetrahydrothiophen-3-yl)-1H-pyrazolo[3,4-d]pyrimidin-4(5H)-one]		~10
O=C(Cn1cnc2c(cnn2C2CCS(=O)(=O)C2)c1=O)c1ccc2c(c1)OCO2 [Compound 29, 5-(2-(benzo[d][1,3]dioxol-5-yl)-2-oxoethyl)-1-(S,S-dioxo-tetrahydrothiophen-3-yl)-1H-pyrazolo[3,4-d]pyrimidin-4(5H)-one]		3.7
Cc1ccc(-n2ncc3c(=O)n(Cc4ccc(Cl)c(Cl)c4)cnc32)c(C)c1 [Compound 32, 5-(3,4-dichlorobenzyl)-1-(2,4-dimethylphenyl)-1H-pyrazolo[3,4-d]pyrimidin-4(5H)-one]		2.1
O=C(Cn1cnc2c(cnn2C2CCS(=O)(=O)C2)c1=O)Nc1cccc(C(F)(F)F)c1 [Compound 23, 2-(4-oxo-1-(S,S,-dioxo-tetrahydrothiophen-3-yl)-1H-pyrazolo[3,4-d]pyrimidin-5(4H)-yl)-N-(3-(trifluoromethyl)phenyl)acetamide]		3.4
O=C(Nc1nn(Cc2ccc(C(F)(F)F)cc2)c2ccccc12)c1ccco1 [Compound 2, N-(1-(4-(trifluoromethyl)benzyl)-1H-indazol-3-yl)furan-2-carboxamide]		2
O=C(Cn1cnc2c(cnn2C2CCS(=O)(=O)C2)c1=O)NCc1ccc(F)cc1 [Compound 24, N-(4-fluorobenzyl)-2-(4-oxo-1-(S,S-dioxo-tetrahydrothiophen-3-yl)-1H-pyrazolo[3,4-d]pyrimidin-5(4H)-yl)acetamide]		4.3
c1ccc(Nc2nc(-c3ccccc3)[n+](-c3ccccc3)s2)cc1 [Compound 7, N-phenyl-2,3-diphenyl-1,2,4-thiadiazolium-5-amine]	> 50	2
Cc1ccc(C(=O)Cn2cnc3c(cnn3C3CCS(=O)(=O)C3)c2=O)c(C)c1 [Compound 28, 5-(2-(2,4-dimethylphenyl)-2-oxoethyl)-1-(S,S-dioxo-tetrahydrothiophen-3-yl)-1H-pyrazolo[3,4-d]pyrimidin-4(5H)-one]		4.7
O=c1c2cnn(C3CCS(=O)(=O)C3)c2ncn1Cc1ccc(Cl)c(Cl)c1 [Compound 1, 5-(3,4-dichlorobenzyl)-1-(S,S,-dioxo-tetrahydrothiophen-3-yl)-1H-pyrazolo[3,4-d]pyrimidin-4(5H)-one]		0.734
O=C(Cn1cnc2c(cnn2C2CCS(=O)(=O)C2)c1=O)NCc1ccc2c(c1)OCO2 [Compound 25, N-(benzo[d][1,3]dioxol-5-ylmethyl)-2-(4-oxo-1-(S,S-dioxo-tetrahydrothiophen-3-yl)-1H-pyrazolo[3,4-d]pyrimidin-5(4H)-yl)acetamide]		4.6

Continued by falling IC50 (fascin), values first:

IC50 (4T1 breast tumor cells) [µM]	IC50 (fascin) [µM]	SMILES
	5	c1ccc(CNc2nc(-c3ccccc3)[n+](-c3ccccc3)s2)cc1 [Compound 6, N-benzyl-2,3-diphenyl-1,2,4-thiadiazolium-5-amine]
~7	~4	O=S(=O)(Nc1nc2ccc(Oc3ccccc3)cc2s1)c1cccc(Cl)c1 [Compound 16, 3-chloro-N-(6-phenoxybenzo[d]thiazol-2-yl)benzenesulfonamide]
~60	~4	O=[N+]([O-])c1cccc(S(=O)(=O)Nc2nc3ccc(F)cc3s2)c1 [Compound 17, N-(6-fluorobenzo[d]thiazol-2-yl)-3-nitrobenzenesulfonamide]
~60	~4	O=C(/C=C/c1ccccc1)Nc1nc2ccccc2s1 [Compound 20, N-(benzo[d]thiazol-2-yl)cinnamamide]
> 30	2.7	Cc1ccc(S(=O)(=O)Nc2cc(Sc3nc[nH]n3)c(O)c3ccccc23)c(C)c1 [Compound 15, N-(3-(1H-1,2,4-triazol-3-ylthio)-4-hydroxynaphthalen-1-yl)-2,4-dimethylbenzenesulfonamide]
	2.3	Cc1cccc(-n2ncc3c(=O)n(Cc4ccc(Cl)c(Cl)c4)cnc32)c1C [Compound 31, 5-(3,4-dichlorobenzyl)-1-(2,3-dimethylphenyl)-1H-pyrazolo[3,4-d]pyrimidin-4(5H)-one]
> 30	2	O=C1C(Sc2nc[nH]n2)=C/C(=N/S(=O)(=O)c2ccccc2)c2ccccc21 [Compound 13, (Z)-N-(3-(1H-1,2,4-triazol-3-ylthio)-4-oxonaphthalen-1(4H)-ylidene)benzenesulfonamide]
	2	Cc1ccccc1-n1ncc2c(=O)n(Cc3ccc(Cl)c(Cl)c3)cnc21 [Compound 30, 5-(3,4-dichlorobenzyl)-1-o-tolyl-1H-pyrazolo[3,4-d]pyrimidin-4(5H)-one]
~25	~2	CC(=O)Nc1nc2ccc(Cl)cc2s1 [Compound 19, N-(6-chlorobenzo[d]thiazol-2-yl)acetamide]
> 20	1.47	CCOc1ccc(S(=O)(=O)Nc2cc(Sc3nc[nH]n3)c(O)c3ccccc23)cc1 [Compound 9, N-(3-(1H-1,2,4-triazol-3-ylthio)-4-hydroxynaphthalen-1-yl)-4-ethoxybenzenesulfonamide]
	1.2	O=c1c2cnn(CCO)c2ncn1Cc1cccc(Cl)c1 [Compound 21, 5-(3-chlorobenzyl)-1-(2-hydroxyethyl)-1H-pyrazolo[3,4-d]pyrimidin-4(5H)-one]
~20	0.89	CCc1ccc(S(=O)(=O)Nc2cc(Sc3nc[nH]n3)c(O)c3ccccc23)cc1 [Compound 11, N-(3-(1H-1,2,4-triazol-3-ylthio)-4-hydroxynaphthalen-1-yl)-4-ethylbenzenesulfonamide]
20	0.683	Cc1ccc(C)c(S(=O)(=O)Nc2cc(Sc3nc[nH]n3)c(O)c3ccccc23)c1 [Compound 8, N-(3-(1H-1,2,4-triazol-3-ylthio)-4-hydroxynaphthalen-1-yl)-2,5-dimethylbenzenesulfonamide]
